From PubChem BioAssay AID1918939 (Molecular Pharmacology Branch, DTP, NCI, 2023)
Values joined by “and” are separate entries in the source; they are usually repeats but may differ in a detail not shown here. Equal entries are not always repeated.

Test system: 653999-131-R-J2-PDC complex spheroid viability
Assay: Anticancer human tumor 653999-131-R-J2-PDC patient-derived lung adenocarcinoma cell line growth inhibition
Conditions: for viability, T/C: stronger effect = lower value
Procedure, shortened: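 Complex spheroids of tumor cells with HUVEC and human MSCs, exposed to iadademstat combined with other agents. Each agent tested in half-log steps from near clinical Cmax (else 10 microM top), DMSO ≤0.25%.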

[1] = curve of first compound, second compound 0.1 µM
[2] = curve of first compound, second compound 0.316 µM
[3] = curve of first compound, second compound 1 µM
[4] = curve of first compound, second compound 3.16 µM
[5] = curve of first compound, second compound 10 µM
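Also: spheroids exposed to agents for seven days before readout.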

Nc1ccccc1NC(=O)c1ccc(CNC(=O)OCc2cccnc2)cc1 + NC1CCC(NC2CC2c2ccccc2)CC1
IC50 [1]: 0.349 µM | IC50 [2]: 0.228 µM | IC50 [3]: 0.394 µM | IC50 [4]: 0.294 µM | IC50 [5]: 0.301 µM | viability, T/C (second compound 0.1 µM, first compound 0.00949 µM): 68.4% | viability, T/C (second compound 0.1 µM, first compound 0.03 µM): 68.1% | viability, T/C (second compound 0.1 µM, first compound 0.0949 µM): 57.1% | viability, T/C (second compound 0.1 µM, first compound 0.3 µM): 54.3% | viability, T/C (second compound 0.1 µM, first compound 0.949 µM): 35.8% | viability, T/C (second compound 0.1 µM, first compound 3 µM): 9.78% | viability, T/C (second compound 0.316 µM, first compound 0.00949 µM): 70.5% | viability, T/C (second compound 0.316 µM, first compound 0.03 µM): 61.3% | viability, T/C (second compound 0.316 µM, first compound 0.0949 µM): 56.1% | viability, T/C (second compound 0.316 µM, first compound 0.3 µM): 49% | viability, T/C (second compound 0.316 µM, first compound 0.949 µM): 33.2% | viability, T/C (second compound 0.316 µM, first compound 3 µM): 8.88% | viability, T/C (second compound 1 µM, first compound 0.00949 µM): 75.3% | viability, T/C (second compound 1 µM, first compound 0.03 µM): 69.7% | viability, T/C (second compound 1 µM, first compound 0.0949 µM): 65.1% | viability, T/C (second compound 1 µM, first compound 0.3 µM): 52.4% | viability, T/C (second compound 1 µM, first compound 0.949 µM): 38.5% | viability, T/C (second compound 1 µM, first compound 3 µM): 8.55% | viability, T/C (second compound 3.16 µM, first compound 0.00949 µM): 69.6% | viability, T/C (second compound 3.16 µM, first compound 0.03 µM): 77.9% | viability, T/C (second compound 3.16 µM, first compound 0.0949 µM): 57.1% | viability, T/C (second compound 3.16 µM, first compound 0.3 µM): 46.9% | viability, T/C (second compound 3.16 µM, first compound 0.949 µM): 36.3% | viability, T/C (second compound 3.16 µM, first compound 3 µM): 8.4% | viability, T/C (second compound 10 µM, first compound 0.00949 µM): 74.6% | viability, T/C (second compound 10 µM, first compound 0.03 µM): 62% | viability, T/C (second compound 10 µM, first compound 0.0949 µM): 54.6% | viability, T/C (second compound 10 µM, first compound 0.3 µM): 57.4% | viability, T/C (second compound 10 µM, first compound 0.949 µM): 30.8% | viability, T/C (second compound 10 µM, first compound 3 µM): 5.06%

O=C(C=Cn1cnc(-c2cc(C(F)(F)F)cc(C(F)(F)F)c2)n1)NNc1cnccn1 + NC1CC1c1ccc(-c2cccc(O)c2)cc1
IC50 [1]: 0.0148 µM | IC50 [2]: 0.0069 µM | IC50 [3]: < 0.00316 µM | IC50 [4]: < 0.00316 µM | IC50 [5]: < 0.00316 µM | viability, T/C (second compound 0.1 µM, first compound 0.00316 µM): 53.4% | viability, T/C (second compound 0.1 µM, first compound 0.01 µM): 53.9% | viability, T/C (second compound 0.1 µM, first compound 0.0316 µM): 47.5% | viability, T/C (second compound 0.1 µM, first compound 0.1 µM): 38.8% | viability, T/C (second compound 0.1 µM, first compound 0.316 µM): 39% | viability, T/C (second compound 0.1 µM, first compound 1 µM): 29.2% | viability, T/C (second compound 0.316 µM, first compound 0.00316 µM): 54% | viability, T/C (second compound 0.316 µM, first compound 0.01 µM): 48.3% | viability, T/C (second compound 0.316 µM, first compound 0.0316 µM): 44.3% | viability, T/C (second compound 0.316 µM, first compound 0.1 µM): 34.9% | viability, T/C (second compound 0.316 µM, first compound 0.316 µM): 37.2% | viability, T/C (second compound 0.316 µM, first compound 1 µM): 31.8% | viability, T/C (second compound 1 µM, first compound 0.00316 µM): 47.8% | viability, T/C (second compound 1 µM, first compound 0.01 µM): 51.5% | viability, T/C (second compound 1 µM, first compound 0.0316 µM): 43% | viability, T/C (second compound 1 µM, first compound 0.1 µM): 34.2% | viability, T/C (second compound 1 µM, first compound 0.316 µM): 27.2% | viability, T/C (second compound 1 µM, first compound 1 µM): 27.4% | viability, T/C (second compound 3.16 µM, first compound 0.00316 µM): 46.4% | viability, T/C (second compound 3.16 µM, first compound 0.01 µM): 45.8% | viability, T/C (second compound 3.16 µM, first compound 0.0316 µM): 38.8% | viability, T/C (second compound 3.16 µM, first compound 0.1 µM): 41.1% | viability, T/C (second compound 3.16 µM, first compound 0.316 µM): 30% | viability, T/C (second compound 3.16 µM, first compound 1 µM): 24.8% | viability, T/C (second compound 10 µM, first compound 0.00316 µM): 49.5% | viability, T/C (second compound 10 µM, first compound 0.01 µM): 48.8% | viability, T/C (second compound 10 µM, first compound 0.0316 µM): 39.5% | viability, T/C (second compound 10 µM, first compound 0.1 µM): 39.6% | viability, T/C (second compound 10 µM, first compound 0.316 µM): 33.7% | viability, T/C (second compound 10 µM, first compound 1 µM): 27%

COc1ccc([C@@H](O)c2cc(-c3ncnc4cc(N5CCOCC5)ccc34)c(F)cc2Cl)nn1
viability, T/C (compound 0.0316 µM): 101% and 104% | viability, T/C (compound 0.1 µM): 93.2% and 96.7% | viability, T/C (compound 0.316 µM): 77.3% and 87.9% | viability, T/C (compound 1 µM): 61.9% and 64.3% | viability, T/C (compound 3.16 µM): 44.9% and 50.9% | viability, T/C (compound 10 µM): 29.5% and 30.6% | IC50 (curve of compound): 2.19 µM and 2.88 µM
